Among the data in PubChem BioAssay (NCI) are TGI and GI50 values, retold here.

Test in all cases: inhibition of tumour cell growth, NCI panel, 48 h
The test system of assay [1] is CAKI-1 renal.
Assay [2] concerns COLO 205 colon.
For assay [3], the system named is HS 578T breast.
The subject of assay [4] is LOX IMVI melanoma.
The test system of assay [5] is SF-295 CNS.
The subject of assay [6] is SK-OV-3 ovarian.
Assay [7] concerns SN12C renal.
Assay [8] concerns SNB-19 CNS.
The test system of assay [9] is SNB-75 CNS.
Assay [10] concerns U251 CNS.

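Briefly, cells in 96-well plates were exposed to five compound concentrations for 48 h, and endpoints were estimated by linear interpolation. Abbreviation: GI50, concentration required for 50% inhibition of growth. Definition used: TGI = concentration required for complete inhibition of growth.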

On to `N=c1ccn2c(n1)OC1C(OP(=O)(O)O)C(CO)OC12` (stereo not drawn), for which the TGI in assay [1], in [2], in assay [3], in assay [4], in [5] and in assay [6] was over 100 µM each time. For the same compound, the TGI in assay [7], in assay [8], in assay [9] and in [10] was over 100 µM each time.
On to `O=c1[nH]cnc2c(C3OC(CO)C(O)C3O)[nH]nc12` (stereo not drawn), for which the TGI in [1] was over 100 µM; in assay [2] it was over 100 µM; in assay [3] it was over 100 µM; in [4], over 100 µM; in [5], over 100 µM; in assay [6] it was 28.3 µM. The TGI in assay [7], in [8], in [9] and in assay [10] was over 100 µM throughout.
As to `COc1cc2c(c(OC)c1OC)-c1ccc([O-])c(=O)cc1[C@@H](NC(C)=O)CC2.COc1cc2c(c(OC)c1OC)-c1ccc([O-])c(=O)cc1[C@@H](NC(C)=O)CC2.[Cu+2]`, the GI50 in assay [1] was 4960 nM; in [2], 2.82 µM; in assay [3], 1940 nM; in [4] it was 4.3 µM; in assay [5], 3.1 µM; in [6], 2950 nM. Besides, the GI50 is 4.97 µM in assay [7], 14.7 µM in assay [8], 5.39 µM in assay [9] and 3.48 µM in [10]. The TGI is 63.1 µM in assay [1]; 9.19 µM in [2]; over 100 µM in assay [3]; over 100 µM in assay [4]; over 100 µM in assay [5]; over 100 µM in [6]. For the same compound, the TGI in assay [7], in assay [8], in assay [9] and in [10] was over 100 µM throughout.
Regarding `Nc1nc(N)c2nc(CNc3ccc(C(=O)CC(CCC(=O)O)C(=O)O)cc3)cnc2n1` (stereo not drawn), the GI50 in [1] is 41.2 nM; in assay [2], 5.77 µM; in assay [3], over 100000 nM; in [4], under 0.0229 µM; in assay [5], 0.19 µM; in assay [7] it was 0.18 µM. For the same compound, the GI50 in assay [8] was 0.627 µM; in assay [9], 4.71 µM; in assay [10] it was 0.215 µM. The TGI in [1], in [2], in assay [3], in assay [4], in [5] and in [6] was over 100 µM throughout. Also, the TGI in assay [7], in [8], in assay [9] and in assay [10] was over 100 µM throughout.
Turning to `Cc1cc(N(CCOS(C)(=O)=O)CCOS(C)(=O)=O)ccc1C=Nc1ccc(-c2csc(-c3ccccc3)n2)c(Cl)c1`, the TGI came to 1.32 µM in assay [1]; 10.2 µM in [2]; 49.8 µM in [3]; 28.3 µM in assay [4]; 29.8 µM in [5]; 31.6 µM in assay [6]. The TGI is 44 µM in assay [7], over 61.1 µM in [8], 14.1 µM in assay [9] and over 64.8 µM in assay [10].
Consider `CC(=O)[O-].CC(=O)[O-].[Mn+2].c1ccc(/C(=N\Nc2ccccn2)c2ccccn2)cc1`, for which the GI50 in assay [1] is 39.3 nM; in [6] it was 50.9 nM. In addition, the TGI is 8.47 µM in assay [1]; 70.2 µM in assay [3]; 2.06 µM in [4]; 16.9 µM in assay [5]; 17.5 µM in assay [6]; 6.83 µM in assay [7]. For the same compound, the results for the TGI in assay [8], in assay [9] and in assay [10] were 16.7 µM, 17.7 µM and 8.15 µM, respectively.
As to `CN1CCN(C(=O)c2ccc(NC(=O)Nc3ccc(N(C)c4ccnc(Nc5ccc(CS(C)(=O)=O)cc5)n4)cc3)cc2)CC1`, the GI50 is over 25000 nM in [1]; 13 µM in assay [2]; 4620 nM in [3]; 10 µM in assay [4]; over 22.5 µM in assay [5]; over 25000 nM in [6]. Besides, the GI50 was 9.42 µM in assay [7], 12.7 µM in assay [8], 12.7 µM in assay [9] and 6.26 µM in assay [10]. Besides, the TGI in [1] is over 25 µM; in assay [2], over 25 µM; in assay [3], over 22.1 µM; in [4] it was over 25 µM; in assay [5], over 25 µM; in [6], over 25 µM. Besides, the TGI in assay [7], in [8], in assay [9] and in assay [10] was over 25 µM throughout.
In the case of `COc1ccc(NC(=O)C(=O)C(CC2C(=O)NC(=S)NC2=O)C(=O)c2ccc3ccccc3c2)c([N+](=O)[O-])c1` (stereo not drawn), the TGI in assay [1], in assay [2], in assay [3], in [4], in assay [5] and in assay [6] was over 100 µM each time. Moreover, the TGI in [7], in assay [8], in [9] and in assay [10] was over 100 µM in each case.
In the case of `O=S(=O)(NCCNc1cc(-c2cn(-c3ccccc3)nc2-c2cccc(O)c2)ccn1)c1ccc(C(F)(F)F)cc1`, the GI50 in [1] is 1940 nM; in assay [2], 1.81 µM; in assay [3] it was 2310 nM; in [4], 1.7 µM; in assay [6], 3790 nM; in [7], 2.31 µM. Moreover, the figures for the GI50 in assay [8], in [9] and in [10] were 3.79 µM, 2.63 µM and 2.65 µM, respectively. The TGI in [1] worked out at 5.35 µM; in assay [2], 4 µM; in assay [3] it was 19.4 µM; in assay [4], 3.29 µM; in assay [6], 16.2 µM; in [7] it was 5.49 µM. The TGI turned out to be 17.4 µM in assay [8], 14 µM in [9] and 7.28 µM in assay [10].
With `CC1=CC2=C(OCO1)C(=O)c1ccccc1C2=O`, the TGI was over 94 µM in assay [1]; 11.5 µM in assay [2]; 4.25 µM in assay [3]; 8.38 µM in [4]; 8.61 µM in assay [5]; 48.9 µM in assay [6]. Further, the TGI in assay [7] is 11.4 µM; in assay [8] it was 34 µM; in assay [9], 9.1 µM; in assay [10] it was 13.3 µM.
